# Results from PubChem BioAssay (NCI).
#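 How tested: cells in 96-well plates exposed to compound for 48 hours at five concentrations. TGI marks complete inhibition of growth.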
# Columns and labels:
# Test in all cases: NCI-60 cell line screen, 48 h
# SNB-78 CNS = tested on: SNB-78 CNS
# MOLT-4 leukemia = tested on: MOLT-4 leukemia
# HOP-62 NSCLC = tested on: HOP-62 NSCLC
# DMS 114 small cell lung = tested on: DMS 114 small cell lung
# CCRF-CEM leukemia = tested on: CCRF-CEM leukemia
# OVCAR-5 ovarian = tested on: OVCAR-5 ovarian
# HOP-18 NSCLC = tested on: HOP-18 NSCLC
# HOP-92 NSCLC = tested on: HOP-92 NSCLC
# SNB-19 CNS = tested on: SNB-19 CNS
# NCI-H460 lung = tested on: NCI-H460 lung
# KM20L2 colon = tested on: KM20L2 colon
# HT29 colon = tested on: HT29 colon
# K-562 leukemia = tested on: K-562 leukemia
# COLO 205 colon = tested on: COLO 205 colon
# KM12 colon = tested on: KM12 colon
# XF 498 CNS = tested on: XF 498 CNS
# SW-620 colon = tested on: SW-620 colon
# TK-10 renal = tested on: TK-10 renal
# IGROV1 ovarian = tested on: IGROV1 ovarian
# LOX IMVI melanoma = tested on: LOX IMVI melanoma
# RPMI-8226 leukemia = tested on: RPMI-8226 leukemia
# MALME-3M melanoma = tested on: MALME-3M melanoma
# SK-OV-3 ovarian = tested on: SK-OV-3 ovarian
# LXFL 529 NSCLC = tested on: LXFL 529 NSCLC
# HCT-15 colon = tested on: HCT-15 colon
# CAKI-1 renal = tested on: CAKI-1 renal
# HL-60(TB) leukemia = tested on: HL-60(TB) leukemia
# UACC-62 melanoma = tested on: UACC-62 melanoma
# SF-295 CNS = tested on: SF-295 CNS
# NCI-H226 lung = tested on: NCI-H226 lung
# NCI-H23 lung = tested on: NCI-H23 lung
# 786-0 renal = tested on: 786-0 renal
# UO-31 renal = tested on: UO-31 renal
# NCI-H522 lung = tested on: NCI-H522 lung
# SF-539 CNS = tested on: SF-539 CNS
# SK-MEL-2 melanoma = tested on: SK-MEL-2 melanoma
# SR leukemia = tested on: SR leukemia
# U251 CNS = tested on: U251 CNS
# OVCAR-3 ovarian = tested on: OVCAR-3 ovarian
# DLD-1 colon = tested on: DLD-1 colon
# DMS 273 small cell lung = tested on: DMS 273 small cell lung
# M14 melanoma = tested on: M14 melanoma
# A549 NSCLC = tested on: A549 NSCLC
# OVCAR-4 ovarian = tested on: OVCAR-4 ovarian
# EKVX NSCLC = tested on: EKVX NSCLC
# ACHN renal = tested on: ACHN renal
# SN12C renal = tested on: SN12C renal
# HCT-116 colon = tested on: HCT-116 colon
# RXF 393 renal = tested on: RXF 393 renal
# HCC-2998 colon = tested on: HCC-2998 colon
# SNB-75 CNS = tested on: SNB-75 CNS
# SF-268 CNS = tested on: SF-268 CNS
# SK-MEL-5 melanoma = tested on: SK-MEL-5 melanoma
# M19-MEL melanoma = tested on: M19-MEL melanoma
# UACC-257 melanoma = tested on: UACC-257 melanoma
# SK-MEL-28 melanoma = tested on: SK-MEL-28 melanoma
# OVCAR-8 ovarian = tested on: OVCAR-8 ovarian
# A498 renal = tested on: A498 renal
smiles,measurement,setting,value
Cn1c(=O)c2c3ccccc3c(C(=O)c3ccccc3)n2c2ccccc21,TGI,SNB-78 CNS,> 100 µM
same,TGI,MOLT-4 leukemia,> 100 µM
same,TGI,HOP-62 NSCLC,> 100 µM
same,TGI,DMS 114 small cell lung,> 100 µM
same,TGI,CCRF-CEM leukemia,> 31.6 µM
same,TGI,OVCAR-5 ovarian,> 100 µM
same,TGI,HOP-18 NSCLC,> 100 µM
same,TGI,HOP-92 NSCLC,> 84.2 µM
same,TGI,SNB-19 CNS,> 100 µM
same,TGI,NCI-H460 lung,> 100 µM
same,TGI,KM20L2 colon,> 100 µM
same,TGI,HT29 colon,> 100 µM
same,TGI,K-562 leukemia,> 100 µM
same,TGI,COLO 205 colon,> 100 µM
same,TGI,KM12 colon,> 100 µM
same,TGI,XF 498 CNS,> 100 µM
same,TGI,SW-620 colon,> 100 µM
same,TGI,TK-10 renal,> 96.6 µM
same,TGI,IGROV1 ovarian,> 100 µM
same,TGI,LOX IMVI melanoma,> 100 µM
same,TGI,RPMI-8226 leukemia,> 100 µM
same,TGI,MALME-3M melanoma,> 100 µM
same,TGI,SK-OV-3 ovarian,> 100 µM
same,TGI,LXFL 529 NSCLC,> 100 µM
same,TGI,HCT-15 colon,> 100 µM
same,TGI,CAKI-1 renal,> 100 µM
same,TGI,HL-60(TB) leukemia,> 100 µM
same,TGI,UACC-62 melanoma,> 30.1 µM
same,TGI,SF-295 CNS,> 100 µM
same,TGI,NCI-H226 lung,> 100 µM
same,TGI,NCI-H23 lung,> 100 µM
same,TGI,786-0 renal,> 100 µM
same,TGI,UO-31 renal,> 100 µM
same,TGI,NCI-H522 lung,> 100 µM
same,TGI,SF-539 CNS,> 100 µM
same,TGI,SK-MEL-2 melanoma,> 100 µM
same,TGI,SR leukemia,> 100 µM
same,TGI,U251 CNS,> 100 µM
same,TGI,OVCAR-3 ovarian,> 100 µM
same,TGI,DLD-1 colon,> 100 µM
same,TGI,DMS 273 small cell lung,> 100 µM
same,TGI,M14 melanoma,> 100 µM
same,TGI,A549 NSCLC,> 100 µM
same,TGI,OVCAR-4 ovarian,> 100 µM
same,TGI,EKVX NSCLC,> 100 µM
same,TGI,ACHN renal,> 100 µM
same,TGI,SN12C renal,> 100 µM
same,TGI,HCT-116 colon,> 100 µM
same,TGI,RXF 393 renal,> 100 µM
same,TGI,HCC-2998 colon,> 100 µM
same,TGI,SNB-75 CNS,15 µM
same,TGI,SF-268 CNS,> 100 µM
same,TGI,SK-MEL-5 melanoma,> 100 µM
same,TGI,M19-MEL melanoma,> 100 µM
same,TGI,UACC-257 melanoma,> 100 µM
same,TGI,SK-MEL-28 melanoma,> 100 µM
same,TGI,OVCAR-8 ovarian,> 100 µM
same,TGI,A498 renal,> 100 µM
CC#CC(OCC)(OCC)OCC,TGI,SNB-78 CNS,> 100 µM
same,TGI,MOLT-4 leukemia,> 100 µM
same,TGI,HOP-62 NSCLC,> 100 µM
same,TGI,DMS 114 small cell lung,74.3 µM
same,TGI,CCRF-CEM leukemia,> 100 µM
same,TGI,OVCAR-5 ovarian,> 100 µM
same,TGI,HOP-18 NSCLC,> 100 µM
same,TGI,HOP-92 NSCLC,> 100 µM
same,TGI,SNB-19 CNS,> 100 µM
same,TGI,NCI-H460 lung,> 100 µM
same,TGI,KM20L2 colon,> 100 µM
same,TGI,HT29 colon,> 100 µM
same,TGI,K-562 leukemia,> 100 µM
same,TGI,COLO 205 colon,> 100 µM
same,TGI,KM12 colon,> 100 µM
same,TGI,XF 498 CNS,> 100 µM
same,TGI,TK-10 renal,> 100 µM
same,TGI,IGROV1 ovarian,> 100 µM
same,TGI,LOX IMVI melanoma,39.9 µM
same,TGI,RPMI-8226 leukemia,> 100 µM
same,TGI,MALME-3M melanoma,> 100 µM
same,TGI,SK-OV-3 ovarian,> 100 µM
same,TGI,LXFL 529 NSCLC,> 100 µM
same,TGI,HCT-15 colon,> 100 µM
same,TGI,CAKI-1 renal,> 100 µM
same,TGI,HL-60(TB) leukemia,> 100 µM
same,TGI,UACC-62 melanoma,> 100 µM
same,TGI,SF-295 CNS,> 100 µM
same,TGI,NCI-H226 lung,> 100 µM
same,TGI,NCI-H23 lung,> 100 µM
same,TGI,786-0 renal,> 100 µM
same,TGI,UO-31 renal,> 100 µM
same,TGI,NCI-H522 lung,> 100 µM
same,TGI,SF-539 CNS,> 100 µM
same,TGI,SK-MEL-2 melanoma,> 100 µM
same,TGI,SR leukemia,> 100 µM
same,TGI,U251 CNS,> 100 µM
same,TGI,OVCAR-3 ovarian,> 100 µM
same,TGI,DLD-1 colon,> 100 µM
same,TGI,DMS 273 small cell lung,49.1 µM
same,TGI,M14 melanoma,> 100 µM
same,TGI,A549 NSCLC,> 100 µM
same,TGI,OVCAR-4 ovarian,> 100 µM
same,TGI,EKVX NSCLC,> 100 µM
same,TGI,ACHN renal,> 100 µM
same,TGI,SN12C renal,> 100 µM
same,TGI,HCT-116 colon,> 100 µM
same,TGI,RXF 393 renal,> 100 µM
same,TGI,HCC-2998 colon,> 100 µM
same,TGI,SNB-75 CNS,> 100 µM
same,TGI,SF-268 CNS,> 100 µM
same,TGI,SK-MEL-5 melanoma,> 100 µM
same,TGI,M19-MEL melanoma,> 100 µM
same,TGI,UACC-257 melanoma,> 100 µM
same,TGI,SK-MEL-28 melanoma,> 100 µM
same,TGI,OVCAR-8 ovarian,> 100 µM
same,TGI,A498 renal,> 100 µM
